Laboratory results from US7816330B2, “Substituted benzimidazole-, benztriazole-, and benzimidazolone-O-glucosides” (Janssen Pharmaceutica NV, priority 2003, dated 2010).

What was measured:
human SGLT2 = target: T1, human SGLT2 (Homo sapiens, UniProt P31639); assay: Cell-based assay for sodium-dependent glucose transport (14C-AMG uptake), CHOK-SGLT2; conditions: CHO-K1 cells stably expressing human SGLT2, Na-dependent 14C-AMG uptake; for inhibition at 10 µM: read-out: CHOK-SGLT2 % Inh. @10 μM
T1 construct: expressed in transfected cells; pcDNA vector)
T1 sequence (P31639 1-672): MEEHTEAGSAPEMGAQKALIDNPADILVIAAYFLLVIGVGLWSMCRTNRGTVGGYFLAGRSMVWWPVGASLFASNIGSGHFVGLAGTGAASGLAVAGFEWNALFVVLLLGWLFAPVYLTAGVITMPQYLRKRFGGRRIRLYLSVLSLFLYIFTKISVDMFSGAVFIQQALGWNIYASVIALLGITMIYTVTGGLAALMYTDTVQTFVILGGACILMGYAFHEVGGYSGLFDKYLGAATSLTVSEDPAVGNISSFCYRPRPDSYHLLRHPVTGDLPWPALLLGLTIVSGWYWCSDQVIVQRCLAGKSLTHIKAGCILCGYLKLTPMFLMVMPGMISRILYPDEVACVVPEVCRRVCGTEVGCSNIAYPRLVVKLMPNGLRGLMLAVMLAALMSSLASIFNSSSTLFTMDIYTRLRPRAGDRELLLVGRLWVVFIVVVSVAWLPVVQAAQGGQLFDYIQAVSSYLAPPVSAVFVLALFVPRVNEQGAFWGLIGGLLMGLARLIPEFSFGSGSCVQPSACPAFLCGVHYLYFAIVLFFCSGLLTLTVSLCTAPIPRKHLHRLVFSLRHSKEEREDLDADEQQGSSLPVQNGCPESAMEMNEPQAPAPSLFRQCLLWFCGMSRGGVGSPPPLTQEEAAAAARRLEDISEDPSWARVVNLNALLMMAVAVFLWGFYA
Experimental: (§1) Cloning of the human SGLT1 and human SGLT2 cDNAs and construction of the mammalian expression vector: The human SGLT1 cDNA (Genbank M24847) was cloned from human small intestine. Human SGLT2 cDNA (Genbank M95549) was cloned from human kidney. Both full cDNAs were subcloned into pcDNA and sequenced to verify the integrity of the construct.
(§2) Generation of CHO-K1 cells stably expressing human SGLT1 or human SGLT2: Transfection of CHO-K1 cells was performed using DMRIE-C reagent (Life Technologies, Gaithersburg, Md.). Transfectants were then selected in the presence of the antibiotic G418 (Gibco-BRL, Grand Island, N.Y.) at 400 μg/ml. Individual clones were then characterized using the functional assay described below.
(§3) Cell-based assay for sodium-dependent glucose transport: Cell lines stably expressing human SGLT1 or SGLT2 were then used for functional analysis of Na+-dependent glucose uptake. Briefly, cells were plated at a density of 65,000 cells per well in a 96-well plate and allowed to grow for 48 hours. Cells were subsequently washed one time with Assay Buffer (50 mM HEPES pH 7.4, 20 mM Tris, 5 mM KCl, 1 mM MgCl2, 1 mM CaCl2 and 137 mM NaCl) and treated with compound in the absence or presence of NaCl for 15 minutes. Cells were then labeled with ^14C-α-methylglucopyranoside (AMG, Sigma, St. Louis, Mo.), a non-metabolizable glucose analog specific for sodium-dependent glucose transporters as previously described (Peng, H. and Lever J. E. Post-transcriptional regulation of Na^+/glucose cotransporter (SGLT1) gene expression in LLC-PK1 cells. J Biol Chem 1995; 270:20536-20542.). After 2 hours the labelled cells were washed three times with ice-cold PBS. After aspiration, cells were solubilized using Microscint 20 (Packard, Meriden, Conn.) and Na-dependent ^14C-AMG uptake was quantified by measuring radioactivity. Plates were counted in a TopCount (Packard, Meriden, Conn.). Results are reported as the % inhibition or IC50 value from a representative experiment. Variability for the functional assay was typically within 20%.

human SGLT1 = target: T2, human SGLT1 (Homo sapiens, UniProt P13866); assay: Cell-based assay for sodium-dependent glucose transport (14C-AMG uptake), CHOK-SGLT1; conditions: CHO-K1 cells stably expressing human SGLT1, Na-dependent 14C-AMG uptake; for inhibition at 10 µM: read-out: CHOK-SGLT1 % Inh. @10 μM
T2 construct: expressed in transfected cells; pcDNA vector)
T2 sequence (P13866 1-664): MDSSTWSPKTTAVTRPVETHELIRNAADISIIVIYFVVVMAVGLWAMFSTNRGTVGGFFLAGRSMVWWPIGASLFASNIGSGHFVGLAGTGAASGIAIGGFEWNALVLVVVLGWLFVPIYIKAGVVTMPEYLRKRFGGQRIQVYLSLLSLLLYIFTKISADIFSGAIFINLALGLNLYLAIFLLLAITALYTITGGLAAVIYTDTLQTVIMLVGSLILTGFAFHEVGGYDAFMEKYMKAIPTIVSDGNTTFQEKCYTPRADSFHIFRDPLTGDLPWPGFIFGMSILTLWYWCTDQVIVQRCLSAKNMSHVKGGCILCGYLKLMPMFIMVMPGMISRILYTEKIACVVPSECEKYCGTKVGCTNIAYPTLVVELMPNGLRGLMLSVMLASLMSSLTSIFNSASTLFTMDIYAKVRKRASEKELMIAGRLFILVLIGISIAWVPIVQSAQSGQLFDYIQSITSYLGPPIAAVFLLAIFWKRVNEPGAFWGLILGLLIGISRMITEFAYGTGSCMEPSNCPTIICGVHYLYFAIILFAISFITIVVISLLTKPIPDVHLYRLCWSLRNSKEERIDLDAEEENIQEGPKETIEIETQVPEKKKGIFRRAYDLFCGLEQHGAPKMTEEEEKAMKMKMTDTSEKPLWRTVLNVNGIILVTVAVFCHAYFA
Experimental: as §1, §2, §3

SMILES	IC50 (human SGLT2)	IC50 (human SGLT1)	inhibition at 10 µM (human SGLT1)	inhibition at 10 µM (human SGLT2)
OCC1OC(Oc2cccc3ncn(CCc4ccc5c(c4)CCO5)c23)C(O)C(O)C1O (stereo not drawn) [Example 7, 2-{3-[2-(2,3-Dihydro-benzofuran-5-yl)-ethyl]-3H-benzoimidazol-4-yloxy}β-D glucopyranoside]	0.038 µM	0.7 µM		
OCC1OC(Oc2cccc3ncn(CCc4ccc5ccccc5c4)c23)C(O)C(O)C1O [Example 2, 2-[3-(2-naphthalen-2-yl-ethyl)-3H-benzoimidazol-4-yloxy]-β-D-glucopyranoside]	0.334 µM		55%	
COc1ccc(CCn2c(=O)[nH]c3cccc(OC4OC(CO)C(O)C(O)C4O)c32)cc1 (stereo not drawn) [Example 6]				18%
O=c1[nH]c2cccc(OC3OC(CO)C(O)C(O)C3O)c2n1CCc1ccc2ccccc2c1 [Example 1, 2-[3-(2-Naphthalen-2-yl-ethyl)-1,3-dihydro-benzoimidazol-2-one-4-yloxy]-β-D-glucopyranoside]				31%
CCc1ccc(Cn2c(=O)[nH]c3cccc(OC4OC(CO)C(O)C(O)C4O)c32)cc1 [Example 3, 2[3-(4-Ethyl-benzyl)-1,3-dihydro-benzoimidazol-2-one-4-yloxy]-β-D-glucopyranoside]	1.02 µM		1%	
COc1ccc(CCn2nnc3cccc(OC4OC(CO)C(O)C(O)C4O)c32)cc1 [Example 9, 2-{3-[2-(4-methoxy-phenyl)-ethyl]-3H-benzotriazol-4-yloxy}-β-D-glucopyranoside]	0.39 µM		40%	

Now from value to molecule:

IC50 (human SGLT2)	IC50 (human SGLT1)	inhibition at 10 µM (human SGLT1)	inhibition at 10 µM (human SGLT2)	SMILES
0.008 µM	0.59 µM			CCc1ccc(Cn2nnc3cccc(OC4OC(CO)C(O)C(O)C4O)c32)cc1 [Example 10, 2-[3-(4-Ethyl-benzyl)-3H-benzotriazol-4-yloxy]-β-D-glucopyranoside]
0.061 µM	1.12 µM			CCc1ccc(Cn2cnc3cc(C)cc(O[C@@H]4O[C@H](CO)[C@@H](O)[C@H](O)[C@H]4O)c32)cc1 [Example 8, 2-[3-(4-Ethyl-benzyl)-6-methyl-3H-benzoimidazol-4-yloxy]-β-D-glucopyranoside]
0.016 µM	1.12 µM			CCc1ccc(Cn2cnc3cccc(OC4OC(CO)C(O)C(O)C4O)c32)cc1 [Example 4, 2-[3-(4-Ethyl-benzyl)-3H-benzoimidazol-4-yloxy]-β-D-glucopyranoside]
0.365 µM		61%		COc1ccc(CCn2cnc3cccc(OC4OC(CO)C(O)C(O)C4O)c32)cc1 [Example 5, 2-{3-[2-(4-Methoxyphenyl)-ethyl]-3H-benzoimidazol-4-yloxy}-β-D-glucopyranoside]
